The text below walks through data of patent EP1285971B1, “Methods for the phenotypic and genotypic assessment of the drug sensitivity of HIV integrase variants” (Tibotec Pharmaceuticals Ltd., priority 2001, dated 2003).

The test system of the experiment is pHXB2D control. Description: Antiviral experiment with control clone, transfected directly without recombination. Type of experiment: cell-based, HIV. Conditions: no recombination; for fold change: fold change in EC50. On the procedure: Recombinant virus was produced by co-transfection by electroporation of the SmaI-linearized IN-deletion construct and the integrase amplicon into MT4 cells or MT4 cells equipped with an LTR driven reporter gene construct. Production of recombinant virus was evaluated by scoring the cytopathogenic effect (CPE) that is induced by HIV-infection of MT4 cells or by the LTR-driven reporter signal induced by HIV infection in MT4 reporter cells. Green fluorescent protein was used as the reporter signal. Viruses are harvested and titrated at maximum CPE. For recombination the deletion construct pSV40HXB2D-ΔIN was used. Recombination experiments were performed with amplicon from wildtype HIV IIIB and NL4.3, and patient sample 146514 generated by both primer sets. For each recombination 2 µg amplicon was co-transfected with 10 µg SmaI-digested pSV40HXB2D-ΔIN by electroporation into MT4-LTR-EGFP cells. Virus stocks were titrated and tested in an antiviral experiment on a reference panel including nucleoside reverse transcriptase inhibitors (NRTI), non- nucleoside reverse transcriptase inhibitors (NNRTI), protein inhibitor (PR), entry and integrase (IN) inhibitors (Table 2). Recombination was checked by nucleic acid sequence analysis using protocols known to the person skilled in the art. Sequencing primers which can be used are In_seq1F (SEQ ID NO 17), In_seq2F (SEQ ID NO 18), In_seq3F (SEQ ID NO 19), IN_seq1R (SEQ ID NO 20), IN_seq2R (SEQ ID NO 21), and IN_seq3R (SEQ ID NO 22). The recombinant virus was evaluated in an anti-viral assay with a panel of reference compounds including nucleoside RT inhibitors (NRTI) Zidovudine (AZT) Lamivudine (3TC), Didanosine (DDI), non-nucleoside RT inhibitors (NNRTI) Nevirapine (NVP), 4-[[6-amino-5-bromo-2-[(4-cyanophenyl)amino]-4-pyrimidinyl]oxy]-3,5-dimethyl-benzonitrile also referred to as compound 1, 4-[[6-amino-5-bromo-2-[(4-cyanophenyl)amino]-4-pyrimidinyl]oxy]-3,5-dimethyl-Benzonitrile, also referred to as compound 2 protease inhibitors (PR) Saquinavir (SQV), Amprenavir (APV), Indinavir (IDV), [[…]-3-[[(4-aminophenyl)sulfonyl](2-methylpropyl)amino]-2-hydroxy-1-(phenylmethyl)-propyl]-, (3R,3aS,6aR)-hexahydrofuro[2,3-b]furan-3-yl ester carbamic acid also referred to as compound 3, entry-inhibitors (Entry)(AMD3100, DS5000, ATA), and integrase inhibitor (IN) 2-(1-methylethyloxy)-α,γ dioxo-5-(phenylmethyl)-benzenebutanoic acid also referred to as compound 4. […] AVE means antiviral experiment. Type means the type of inhibitor investigated. The fold change is the fold change in EC50. WT III B means that a portion of the wild type IIIB strain has been amplified and used in the antiviral experiment, including transfection and generation of recombinant virus. NL 4-3 means the integrase gene of this laboratory strain has been amplified and subsequently used for the antiviral experiment. […] No recombination has been effected using this HIV clone. pHXB2D has been used directly for transfection and antiviral experiment. Primer set 3 consist of outer primers 5'EGINT3 (SEQ ID NO 4) and 3'EGINT10 (SEQ ID NO 11), and inner primers 5'EGINT4 (SEQ ID NO 5) and 3'EGINT6 (SEQ ID NO 7). Primer set 4 consist of outer primers 5'EGINT3 (SEQ ID NO 4) and 3'EGINT10 (SEQ ID NO 11), and inner primers 5'EGINT5 […] and 3'EGINT6 (SEQ ID NO 7). Other suitable integrase inhibitors include L-731,988, diketo-acids and S-1360.

The mark [1] stands for this setting: Human immunodeficiency virus 1, AVE 6, pHXB2D control.

Take `c1cc(CN2CCCNCCNCCCNCC2)ccc1CN1CCCNCCNCCCNCC1` [AMD3100]: the fold change (AVE 6, pHXB2D control) is 1,0. The EC50 under setting [1] is 55.6 nM.
The matching figures for `CC(C)CN(C[C@@H](O)[C@H](Cc1ccccc1)NC(=O)O[C@H]1CCOC1)S(=O)(=O)c1ccc(N)cc1` [APV, Amprenavir]: 1,0 and 83.8 nM.
For `O=C(O)C1=CC(=C(c2ccc(O)c(C(=O)O)c2)c2ccc(O)c(C(=O)O)c2)C=CC1=O` [ATA], under “AVE 6, pHXB2D control”, the EC50 was determined as 2070 nM and the fold change is listed as 1,0.
For `Cc1cn([C@H]2C[C@H](N=[N+]=[N-])[C@@H](CO)O2)c(=O)[nH]c1=O` [AZT, Zidovudine], the fold change (AVE 6, pHXB2D control) is on record as 1,0. For the same compound, the EC50 under setting [1] was found to be 168 nM.
Take `Cc1cc(C#N)cc(C)c1Oc1nc(Nc2ccc(C#N)cc2)nc(N)c1Br` [Compound 1, 4-[[6-amino-5-bromo-2-[(4-cyanophenyl)amino]-4-pyrimidinyl]oxy]-3,5-dimethyl-benzonitrile]: for the setting “AVE 6, pHXB2D control”, the concentration for a half-maximal effect (EC50) came to 1 nM and the fold change is recorded as 1,0.
Take `Cc1cc(C#N)cc(C)c1Oc1nc(Nc2ccc(C#N)cc2)nc(N)c1Br` [Compound 2, 4-[[6-amino-5-bromo-2-[(4-cyanophenyl)amino]-4-pyrimidinyl]oxy]-3,5-dimethyl-Benzonitrile]: for the setting “AVE 6, pHXB2D control”, the EC50 amounted to 3.1 nM and the fold change was 1,0.
`Nc1ccn([C@@H]2CS[C@H](CO)O2)c(=O)n1` [Compound 3TC, Lamivudine]: under “AVE 6, pHXB2D control”, the fold change is reported as 1,0. Moreover, the EC50 under setting [1] worked out at 1380 nM.
The matching figures for `CC(C)Oc1ccc(Cc2ccccc2)cc1C(=O)CC(=O)C(=O)O` [Compound 4, 2-(1-methylethyloxy)-α,γ dioxo-5-(phenylmethyl)-benzenebutanoic acid]: 1,0 and 276 nM.
The like results for `O=c1[nH]cnc2c1ncn2[C@H]1CC[C@@H](CO)O1` [DDI, Didanosine] were, in that order, 1,0 and 4820 nM.
The like results for `CC(C)(C)NC(=O)[C@@H]1CN(Cc2cccnc2)CCN1C[C@@H](O)C[C@@H](Cc1ccccc1)C(=O)N[C@H]1c2ccccc2C[C@H]1O` [IDV, Indinavir] were, in that order, 1,0 and 43.9 nM.
With `Cc1ccnc2c1NC(=O)c1cccnc1N2C1CC1` [NVP, Nevirapine], the fold change (AVE 6, pHXB2D control) is reported as 1,0. The EC50 under setting [1] turned out to be 86.3 nM.
The like results for `CC(C)c1nc(CN(C)C(=O)N[C@H](C(=O)N[C@@H](Cc2ccccc2)C[C@H](O)[C@H](Cc2ccccc2)NC(=O)OCc2cncs2)C(C)C)cs1` [RTV, ritonavir] were, in that order, 1,0 and 148 nM.
The matching figures for `CC(C)(C)NC(=O)[C@@H]1C[C@@H]2CCCC[C@@H]2CN1C[C@@H](O)[C@H](Cc1ccccc1)NC(=O)[C@H](CC(N)=O)NC(=O)c1ccc2ccccc2n1` [SQV, Saquinavir]: 1,0 and 19.8 nM.

As a reminder, the EC50 is the midpoint of the concentration-response curve.
